In PubChem BioAssay AID1959 (Broad Institute, 2009):
Calls of active or inactive are those of the source.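 Rule for the calls: active = growth-inhibition EC50 no more than tenfold above the top tested dose; inconclusive = flat fit between 30% and 70% inhibition, or unreliable fit; inactive = EC50 more than tenfold above the top tested dose.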

Test system: E. coli NEB5alpha growth, BacTiter-Glo luminescence, 4 h
Test: antibacterial activity against E. coli NEB5alpha – luminescence, counter-screen for MEX-5/POS-1 RNA-binding inhibitor project, dose response (AID 1959);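 note: pUC19-transformed ampicillin-resistant cells grown in LB with ampicillin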

SMILES	EC50
O=C1C=C(O)c2c(O)cc(O)c(O)c2C1=O	> 11 µM (inactive)
COc1c(O)cccc1[C@@H](O)C1CCN(CCc2ccc(F)cc2)CC1	> 11 µM (inactive)
Cc1ccc(C2C3CN(C(C)C)CC=C3C(C#N)=C(N)C2(C#N)C#N)cc1 (stereo not drawn)	> 11 µM (inactive)
N=c1n(CC(=O)c2ccc([N+](=O)[O-])cc2)c2ccccc2n1Cc1ccc(Cl)cc1	> 11 µM (inactive)
O=C1N=C(N2CCOCC2)S/C1=C\c1ccc(-c2ccccc2Cl)o1	> 11 µM (inactive)
COC1(OC)N=C(N)C2(C#N)C(c3ccc4c(c3)OCO4)C12C#N (stereo not drawn)	> 11 µM (inactive)
CCN1CCN(Cc2c(O)ccc3c2O/C(=C\c2ccccc2)C3=O)CC1	> 11 µM (inactive)
Cc1ccc(-c2ccc(CCC(=O)O)n2-c2ccc(C(=O)O)cc2)cc1	> 11 µM (inactive)
COc1cccc(N2C(=O)NC(=O)/C(=C/c3ccc4c(c3)Cc3ccccc3-4)C2=O)c1	> 11 µM (inactive)
O=C(O)c1ccc(-n2cccc2/C=C2/SC(=O)N(CC(=O)N3CCCC3)C2=O)cc1	> 11 µM (inactive)
CC1(OC(=O)C2CCCC2)C(=O)C=C2C=C(c3ccsc3)OC=C2C1=O (stereo not drawn)	> 11 µM (inactive)
Cc1ccc(S(=O)(=O)c2cc3c(=O)n4ccccc4nc3n(CCc3ccccc3)c2=N)cc1	> 11 µM (inactive)
N=c1c(C(=O)NC2CCCCC2)cc2c(=O)n3ccccc3nc2n1Cc1cccnc1	> 11 µM (inactive)
CC(C)OC(=O)c1nn2c(C(F)(F)F)cc(-c3ccc(Br)o3)nc2c1Br	> 11 µM (inactive)
COc1ccc(C2=CC3=C(Br)C(=O)C(C)(OC(=O)c4cccs4)C(=O)C3=CO2)cc1 (stereo not drawn)	> 11 µM (inactive)
O=c1c2ccccc2oc2ccc(NCCCn3ccnc3)cc12	> 11 µM (inactive)
CC1=C(C(=O)OCc2ccccc2)C(c2ccccc2[N+](=O)[O-])NC(=O)N1C (stereo not drawn)	> 11 µM (inactive)
COc1cccc(C2C(C#N)=C(N)OC3=C2C(=O)CCC3)c1OC(=O)c1ccco1 (stereo not drawn)	> 11 µM (inactive)
Cc1ccc(NC(=O)c2sc3nc4c(c(-c5ccco5)c3c2N)CCC4)cc1	> 11 µM (inactive)
COc1ccc(NC(=O)Nc2ccc(OCc3ccccc3)cc2)cn1	> 11 µM (inactive)
Cc1ccc(S(=O)(=O)Nc2ccccc2F)cc1C(=O)NNC(=O)c1csc(N2CCOCC2)n1	> 11 µM (inactive)
COC(=O)Cn1cc(/C=C2\C(=O)NC(=O)N(c3ccc(OC)cc3)C2=O)c2ccccc21	> 11 µM (inactive)
Cc1cc(C=C2C(=O)c3ccccc3C2=O)c(C)n1-c1ccc(C(=O)O)cc1	> 11 µM (inactive)
C[C@@H]1O[C@@H](OC2C(O)C(OCCc3ccc(O)c(O)c3)OC(CO)C2OC(=O)/C=C/c2ccc(O)c(O)c2)[C@H](O)[C@H](O)[C@H]1O (stereo partly drawn)	> 11 µM (inactive)

SMILES	EC50
CCOCCCNC(=O)CCC(=O)NNc1nc2ccccc2c2nc(C)nn12	> 11 µM (inactive)
Cc1cc([N+](=O)[O-])ccc1-c1ccc(/C=N/NC(=O)c2ccc(Br)o2)o1	> 11 µM (inactive)
Oc1ccc(CCNc2c3ccccc3nc3ccccc23)cc1O	> 11 µM (inactive)
Cc1ccccc1N=C1NC(=O)/C(=C/c2cccn2-c2cccc(C(=O)O)c2)S1	> 11 µM (inactive)
COCCCNC(=O)CCC(=O)NNc1nc2ccccc2c2nc(C)nn12	> 11 µM (inactive)
O=C1CCC/C1=c1\s/c(=C\c2cccnc2)c(=O)n1-c1ccccc1	> 11 µM (inactive)
COc1ccc(-c2cc3ccc(OCC(N)=O)cc3oc2=O)cc1OC	> 11 µM (inactive)
C=CCOc1ccc(C2C(C(=O)c3ccco3)=C(O)C(=O)N2c2nnc(C)s2)cc1 (stereo not drawn)	> 11 µM (inactive)
O=c1[nH]c2ccc([N+](=O)[O-])cc2nc1/C=C(\O)c1ccccc1	> 11 µM (inactive)
Cc1ccc2sc(NNC(=O)c3cc(=O)c4ccccc4o3)nc2c1C	> 11 µM (inactive)
CCOC1(OCC)N=C(N)C2(C#N)C(c3ccc(NC(C)=O)cc3)C12C#N (stereo not drawn)	> 11 µM (inactive)
Cc1ccc2c(c1C)NC(C(=O)O)C1CC=CC21 (stereo not drawn)	> 11 µM (inactive)
OC(C#Cc1ccccn1)c1cccs1 (stereo not drawn)	> 11 µM (inactive)
c1ccc(C2=NNC(c3ccccn3)=NN2)nc1	> 11 µM (inactive)
CCCn1c(O)c(CN2CCCC(C)C2)c(C)c(C#N)c1=O (stereo not drawn)	> 11 µM (inactive)
Cc1ccccc1NS(=O)(=O)c1cc(C(=O)N2CCCC2)ccc1C	> 11 µM (inactive)
COC(=O)Cn1cc(C=C2C(=O)NC(=O)NC2=O)c2ccccc21	> 11 µM (inactive)
CCOC(=O)N1CCN(C(=O)c2ccc3c(c2)NC(=O)/C(=C\c2ccc(OC)c(OC)c2)S3)CC1	> 11 µM (inactive)
N#CC1=C(N)OC2=C(C(=O)CCC2)C1c1ccc2c(c1)OCO2 (stereo not drawn)	> 11 µM (inactive)
COCCn1c(=N)c(S(=O)(=O)c2ccc(Br)cc2)cc2c(=O)n3ccccc3nc21	> 11 µM (inactive)
O=C1C=CC(=O)C(C2=C3C(=O)N(CCc4ccccc4)CC(=O)N3CCC2)=C1	> 11 µM (inactive)
Cc1cc2oc(=O)c(CC(=O)NCCCO)c(C)c2c2occ(C(C)(C)C)c12	> 11 µM (inactive)
Cc1ccc2oc(=O)c(/C=C(\O)CC(C)C)nc2c1	> 11 µM (inactive)
N#CC1=C(N)C(C#N)(C#N)C(c2cccnc2)C2CCCC=C12 (stereo not drawn)	> 11 µM (inactive)

SMILES	EC50
CCN(CC)C(=O)c1cc2c(=O)c3cc(Cl)ccc3oc2nc1C	> 11 µM (inactive)
Cc1[nH]c2ccccc2c1/C=N/NC(=S)NC(C)C	> 11 µM (inactive)
O=C(NN1C(=O)c2ccccc2NC1c1ccccn1)c1ccc(Br)cc1 (stereo not drawn)	> 11 µM (inactive)
Cc1cc(C)cc(N2C(=O)/C(=C\c3ccc(N4CCN(C)CC4)o3)C(=O)NC2=S)c1	> 11 µM (inactive)
Cc1nc(N=Nc2ccc(O)cc2)n[nH]1	> 11 µM (inactive)
O=C1c2cc(F)ccc2-n2c1nc1ccccc1c2=O	> 11 µM (inactive)
CCOc1ccc(-n2c(O)c(C=Nc3ccc(N4CCOCC4)cc3)c(=O)[nH]c2=O)cc1	> 11 µM (inactive)
COc1cc2ccccc2cc1C(=O)NC(=S)Nc1cc(C(=O)O)ccc1C	> 11 µM (inactive)
N#CC1=C(N)C(C#N)(C#N)[C@H](c2ccsc2)[C@H]2COCC=C12	> 11 µM (inactive)
COc1ccccc1NCC(=O)N/N=C/c1c(O)ccc2ccccc12	> 11 µM (inactive)
Oc1cccc(/C=N/N=C/c2cccc(O)c2O)c1O	> 11 µM (inactive)
O=S(=O)(Nc1ccc(O)c2ccccc12)c1ccc(Br)cc1	> 11 µM (inactive)
COc1ccc(C2=CC3=C(Br)C(=O)C(C)(OC(=O)c4ccc(Cl)nc4)C(=O)C3=CO2)cc1 (stereo not drawn)	> 11 µM (inactive)
Cc1nnc(N2C(=O)C(O)=C(C(=O)c3ccco3)C2c2ccc(C(C)(C)C)cc2)s1 (stereo not drawn)	> 11 µM (inactive)
O=C(Nc1ccccc1)c1nn(-c2ccccc2)c(=O)cc1C(F)(F)F	> 11 µM (inactive)
CCCCC1=CC2=CC(=O)C(C)(OC(=O)CC)C(=O)C2=CO1 (stereo not drawn)	> 11 µM (inactive)
O=[N+]([O-])c1cccc(-c2cn3nc(-c4ccccc4)c(-c4ccccc4)nc3n2)c1	> 11 µM (inactive)
Nc1ccc2nc(CCCO)[nH]c2c1	> 11 µM (inactive)
CCN(CC)c1ccc(/C=C(/C#N)c2nc3ccccc3[nH]2)c(OC(C)C)c1	> 11 µM (inactive)
O=C(O)c1ccc(S(=O)(=O)/N=C2\C=C(Nc3ccccc3F)C(=O)c3ccccc32)cc1	> 11 µM (inactive)
CCCn1c(=N)c(C(=O)NCC2CCCO2)cc2c(=O)n3cccc(C)c3nc21 (stereo not drawn)	> 11 µM (inactive)
N#Cc1c(-c2ccc(Cl)cc2)c2c([nH]c1=O)-c1ccccc1OC2	> 11 µM (inactive)
COc1ccc(NC(=O)c2sc3nc(-c4cccnc4)ccc3c2N)cc1	> 11 µM (inactive)
Cc1ccc(C2c3sc(=O)[nH]c3SC3C(=O)NC(=O)C32)cc1 (stereo not drawn)	> 11 µM (inactive)

SMILES	EC50
CN(C)[C@@H]1C(=O)C(C(N)=O)=C(O)[C@@]2(O)C(=O)C3=C(O)c4c(O)cccc4[C@@](C)(O)C3[C@H](O)C12 (stereo partly drawn)	7.38 µM
O=C(Nc1ccc(Br)cn1)c1ccc2nccnc2c1	> 11 µM (inactive)
COc1ccc(/C=C2\CCCc3c2nc2ccccc2c3C(=O)O)cc1OC	> 11 µM (inactive)
CC(=O)Nc1ccc(/C=C/C(=O)c2ccc3c(c2)OCCO3)cc1	> 11 µM (inactive)
Cc1ccc(NC(=O)CN2C(=O)S/C(=C\c3cc(C)n(-c4cccc(C(=O)O)c4)c3C)C2=O)cc1	> 11 µM (inactive)
O=C(NNC(=O)c1ccccc1[N+](=O)[O-])c1csc(N2CCOCC2)n1	> 11 µM (inactive)
COc1ccc(-c2nnc(-c3cc4c(ccc5ccccc54)oc3=O)o2)cc1	> 11 µM (inactive)
CNC(=O)c1c(NC(=O)c2ccc(S(=O)(=O)N3CCCCC3C)cc2)sc2c1CCN(C)C2 (stereo not drawn)	> 11 µM (inactive)
O=c1[nH]c(=O)n(-c2ccc(Cl)cc2)c(O)c1C=NCCN1CCCCC1	> 11 µM (inactive)
CN1CCc2cccc3c2[C@H]1Cc1ccc(O)c(O)c1-3	> 11 µM (inactive)
Cc1ccccc1N=Nc1c(O)n(C)c2ccccc12	> 11 µM (inactive)
CC1=C(C#N)C(=O)NC(=O)/C1=C\c1ccc(-c2cc(C)c(C)cc2[N+](=O)[O-])o1	> 11 µM (inactive)
COc1cc(NC(=O)CSc2nnc3ccc(-c4ccncc4)nn23)cc(OC)c1	> 11 µM (inactive)
Nc1ncnc(NNC(=O)CNC(=O)c2c(F)cccc2Cl)c1[N+](=O)[O-]	> 11 µM (inactive)
CC1=N/C(=C/c2ccco2)C(=O)O1	> 11 µM (inactive)
CCOC(=O)Cn1c(=O)c(-c2cc(Br)ccc2N)nc2ccccc21	> 11 µM (inactive)
N#CC(C(=O)NCc1ccccc1)c1nc2ccccc2nc1N1CCCC1 (stereo not drawn)	> 11 µM (inactive)
CCN(CC)c1ccc(/C=C2\C(=O)NC(=S)N(C)C2=O)o1	> 11 µM (inactive)
CCNC(=O)c1cc2c(=O)n3cccc(C)c3nc2n(CCc2ccccc2)c1=N	> 11 µM (inactive)
C=CCN1C(=O)NC(=O)/C(=C/C=C/c2ccccc2)C1=O	> 11 µM (inactive)
CC(=O)c1ccc(-c2ccc(/C=C(/Sc3n[nH]c(C)n3)C(=O)O)o2)cc1	> 11 µM (inactive)
